Test results as given in patent EP0542497A1, “Heterocyclic compounds” (THE WELLCOME FOUNDATION LIMITED, priority 1991, dated 1993).
Structures can show the parent of a compound that is named as a salt.

Key:
DHFR = target: T1, DHFR (Candida albicans, UniProt P22906); assay: biochemical; details: C.albicans enzyme; read-out: DHFR I50 C.albicans
T1 sequence (P22906 1-192): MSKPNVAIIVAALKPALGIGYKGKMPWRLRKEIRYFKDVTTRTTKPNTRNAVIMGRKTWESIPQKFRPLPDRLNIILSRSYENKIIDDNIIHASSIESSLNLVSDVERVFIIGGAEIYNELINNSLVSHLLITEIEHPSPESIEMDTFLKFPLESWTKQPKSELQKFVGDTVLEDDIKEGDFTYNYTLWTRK

[1] = target: T2, human dihydrofolate reductase (Homo sapiens, UniProt P00374); assay: DHFR I50, human enzyme; type: biochemical
T2 sequence (P00374 1-187): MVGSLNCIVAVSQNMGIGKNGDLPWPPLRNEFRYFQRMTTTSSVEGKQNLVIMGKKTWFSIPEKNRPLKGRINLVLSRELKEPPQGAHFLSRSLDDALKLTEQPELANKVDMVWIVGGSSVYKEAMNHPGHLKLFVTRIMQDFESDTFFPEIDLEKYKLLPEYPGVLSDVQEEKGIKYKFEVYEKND

[2] = test system: Ehrlich ascites carcinoma; assay: Cytotoxicity in cell culture (inhibition of cell growth); type: cell-based; details: mouse line, continuous exposure 72 hours
Method: (§1) The cytotoxic effects of various compounds were measured by the inhibition of mammalian cell growth in culture. Cell lines were grown in RPMI-1640 media prepared without folic acid but supplemented with 10nM calcium leucovorin, 25mM HEPES and 10% dialysed fetal bovine serum. In the case of human medulloblastoma cells (Daoy), the media (containing undialysed 10% fetal bovine serum) was pretreated with the enzyme thymidine phosphorylase (20 units/ml for 30 mins. at 37°C) to remove endogenous thymidine. Cells were seeded into 96 well microtiter plates (at densities determined to give log phase growth of control cells at the end of the assay) in 150µl of medium and grown at 37°C in a humidified incubator at 6% CO₂ for 24 hours. Compounds were prepared in media at four times the highest concentration to be tested; two-fold serial dilutions were made, and compounds were added to cells. […] The EC₅₀, defined as the concentration of compound required to reduce growth to 50% of the control, was determined from a plot of per cent inhibition versus log concentration. Cells were continuously exposed to inhibitor for 72 hours.

[3] = test system: L cells (derived from connective tissue); assay: as above; type: cell-based; details: mouse line, continuous exposure 72 hours
Method: as §1

S180 sarcoma = assay: as above; type: cell-based; details: S-180, mouse line, continuous exposure 72 hours
Method: as §1

CCRF-CEM T cells = assay: as above; type: cell-based; details: human line, continuous exposure 72 hours
Method: as §1

D98 bone marrow cells = assay: as above; type: cell-based; details: human line, continuous exposure 72 hours
Method: as §1

Daoy medulloblastoma = assay: as above; type: cell-based; details: human line, continuous exposure 72 hours, medium pretreated with thymidine phosphorylase
Method: as §1

P388 lymphoid neoplasm = assay: as above; type: cell-based; details: mouse line, continuous exposure 72 hours
Method: as §1

[4] = test system: HCT8 colon adenocarcinoma; assay: as above; type: cell-based; details: HCT-8, human line, continuous exposure 72 hours
Method: as §1

GC3C1 colon carcinoma = assay: as above; type: cell-based; details: GC3/C1, human line, continuous exposure 72 hours
Method: as §1

[5] = test system: KB3-1 epidermoid carcinoma; assay: as above; type: cell-based; details: KB 3-1, human line, continuous exposure 72 hours
Method: as §1

[6] = test system: MCF7 breast adenocarcinoma; assay: as above; type: cell-based; details: human line, continuous exposure 72 hours
Method: as §1

[7] = Brain distribution in mice (brain and plasma concentrations by HPLC); type: in vivo; details: female CD1 mice, 30 or 40 minutes after dose; Compound 1 17mg/kg i.v., Compound 2 10mg/kg i.v., piritrexim 200mg/kg i.p., trimetrexate 100mg/kg i.p.; average of several experiments
Method: Female CD1 mice were dosed with Compound 1 (17mg/kg, i.v.), Compound 2 (10mg/kg, i.v.), piritrexim (200mg/kg,i.p.) or trimetrexate (100mg/kg, i.p.). Brain and plasma samples were collected 30 or 40 minutes later. The drugs were extracted from the samples, and their concentrations were determined using HPLC. The numbers represent the average of several experiments.

Row | IC50 (DHFR) | IC50 [1] | Structure (SMILES) | other results
1 | 4 nM | 9 nM | Cc1cc2c3c(N)nc(N)nc3ccc2n1C(C)C [Compound 8a, 1,3-diamino-7-isopropyl-8-methyl-7H-pyrrolo(3,2-f)quinazoline] | –
2 | 4.1 nM | 3.3 nM | CCC(CC)n1c(COC)cc2c3c(N)nc(N)nc3ccc21 [Compound 9a, 1,3-diamino-7-(1-ethylpropyl)-8-(methoxymethyl)-7H-pyrrolo (3,2-f)quinazoline] | –
3 | 1.8 nM | 1.3 nM | CCCc1cc2c3c(N)nc(N)nc3ccc2n1C(CC)CC [Compound 9b, 1,3-diamino-7-(1-ethylpropyl)-8-propyl-7H-pyrrolo(3,2-f)quinazoline] | –
4 | < 1 nM | < 1 nM | CC(C)n1c(C(C)(C)C)cc2c3c(N)nc(N)nc3ccc21 [Compound 9c, 1,3-diamino-8-tert-butyl-7-isopropyl-7H-pyrrolo(3,2-f)quinazoline] | –
5 | < 1 nM | < 1 nM | CCC(CC)n1c(C(C)C)cc2c3c(N)nc(N)nc3ccc21 [Compound 9d, 1,3-diamino-7-(1-ethylpropyl)-8-isopropyl-7H-pyrrolo(3,2-f)quinazoline] | –
6 | 4.3 nM | < 1 nM | CCC(CC)n1c(CCCCl)cc2c3c(N)nc(N)nc3ccc21 [Compound 9f, 1,3-diamino-8-(3-chloropropyl)-7-(1-ethylpropyl)-7H-pyrrolo(3,2-f)quinazoline] | –
7 | < 1 nM | < 1 nM | CCC(C)(C)n1c(C)cc2c3c(N)nc(N)nc3ccc21 [Compound 10b, 1,3-diamino-7-(1,1-dimethylpropyl)-8-methyl-7H-pyrrolo(3,2-f)quinazoline] | –

Further lines, the compound ahead of its results:

Row | Structure (SMILES) | IC50 (DHFR) | IC50 [1] | other results
8 | CCCC(CC)n1ccc2c3c(N)nc(N)nc3ccc21 (stereo not drawn) [Compound 3, 1,3-Diamino-7-(1-ethylbutyl)-7H-pyrrolo[3,2-f]quinazoline] | 2 nM | < 1 nM | –
9 | CCCC(CCC)n1ccc2c3c(N)nc(N)nc3ccc21 [Compound 4, 1,3-Diamino-7-(1-propylbutyl)-7H-pyrrolo[3,2-f]quinazoline hydrochloride] | < 1 nM | < 2 nM | –
10 | CCc1cc2c3c(N)nc(N)nc3ccc2n1C(CC)CC [Compound 6, 1,3-Diamino-8-ethyl-7-(1-ethylpropyl)-7H-pyrrolo(3,2-f)quinazoline] | < 1 nM | < 1 nM | –
11 | CCC(C)n1ccc2c3c(N)nc(N)nc3ccc21 (stereo not drawn) [Compound 7a, 1,3-diamino-7-sec-butyl-7H-pyrrolo(3,2-f)quinazoline] | 10 nM | 18 nM | –
12 | CCCC(C)n1ccc2c3c(N)nc(N)nc3ccc21 (stereo not drawn) [Compound 7b, 1,3-diamino-7-(1-methylbutyl)-7H-pyrrolo(3,2-f)quinazoline] | 7 nM | 11 nM | –
13 | CCC(C(C)C)n1ccc2c3c(N)nc(N)nc3ccc21 (stereo not drawn) [Compound 7c, 1,3-diamino-7-(1-ethyl-2-methylpropyl)-7H-pyrrolo(3,2-f)quinazoline] | 3 nM | < 2 nM | –
14 | CC(C)n1ccc2c3c(N)nc(N)nc3ccc21 [Compound 7d, 1,3-diamino-7-isopropyl-7H-pyrrolo(3,2-f)quinazoline] | 35 nM | 48 nM | –
15 | COCC(COC)n1ccc2c3c(N)nc(N)nc3ccc21 [Compound 7e, 1,3-diamino-7-(2-methoxy-1-methoxymethyl)ethyl-7H-pyrrolo(3,2-f)quinazoline] | 8.9 nM | 8.4 nM | –
16 | Nc1nc(N)c2c(ccc3c2ccn3C2CCCCC2)n1 [Compound 7f, 1,3-diamino-7-cyclohexyl-7H-pyrrolo(3,2-f)quinazoline] | 3 nM | 44 nM | –
17 | Nc1nc(N)c2c(ccc3c2ccn3C2C=CCCC2)n1 (stereo not drawn) [Compound 7g, 1,3-diamino-7-(2-cyclohexen-1-yl)-7H-pyrrolo(3,2-f)quinazoline] | 6 nM | 33 nM | –
18 | CCc1cc2c3c(N)nc(N)nc3ccc2n1C(C)CC (stereo not drawn) [Compound 9e, 1,3-diamino-8-ethyl-7-sec-butyl-7H-pyrrolo(3,2-f)quinazoline] | < 1 nM | < 1 nM | –
19 | CCCCc1cc2c3c(N)nc(N)nc3ccc2n1C(C)(C)C [Compound 10a, 1,3-diamino-8-butyl-7-tert-butyl-7H-pyrrolo(3,2-f)quinazoline] | 7 nM | – | –
20 | CN(Cc1cnc2nc(N)nc(N)c2n1)c1ccc(C(=O)N[C@@H](CCC(=O)O)C(=O)O)cc1 [Methotrexate, N-[4[[(2,4-diamino-6-pteridinyl)methyl]methylamino]benzoyl]-L-glutamic acid, reference compound] | – | – | EC50 [2]: 8.5 nM; EC50 [3]: 75 nM; EC50 (S180 sarcoma): 18.7 nM; EC50 (CCRF-CEM T cells): 1.9 nM; EC50 (D98 bone marrow cells): 47 nM; EC50 (Daoy medulloblastoma): 21 nM; EC50 (P388 lymphoid neoplasm): 2.7 nM; EC50 [4]: 7.3 nM; EC50 (GC3C1 colon carcinoma): 12 nM; EC50 [5]: 20 nM; EC50 [6]: 12 nM
21 | COc1ccc(OC)c(Cc2cnc3nc(N)nc(N)c3c2C)c1 [Piritrexim, 2,4-diamino-6(2,5-dimethoxybenzyl)5-methylpyrido(2,3-d)pyrimidine, reference compound] | – | – | EC50 [2]: 4 nM; EC50 [3]: 5.2 nM; EC50 (S180 sarcoma): 10 nM; EC50 (CCRF-CEM T cells): 15 nM; EC50 (D98 bone marrow cells): 195 nM; EC50 (Daoy medulloblastoma): 48 nM; EC50 (P388 lymphoid neoplasm): 23 nM; EC50 [4]: 1.3 nM; EC50 (GC3C1 colon carcinoma): 7.6 nM; EC50 [5]: 340 nM; EC50 [6]: 175 nM; Tissue concentration brain [7]: 2.3 µg/g; Tissue concentration plasma [7]: 4.2 µg/mL
22 | COc1cc(NCc2ccc3nc(N)nc(N)c3c2C)cc(OC)c1OC [Trimetrexate, 5-methyl-6-[[(3,4,5-trimethoxyphenyl)amino]methyl]-2,4-quinazolinediamine, reference compound] | – | – | Tissue concentration brain [7]: 1.4 µg/g; Tissue concentration plasma [7]: 13 µg/mL
